Patent US11415493B2, “Detection of cells in a liquid sample” (DELTA INSTRUMENTS B.V., priority 2016, dated 2022)
“Also recorded” adds a separate entry of the source.

Assays:
Assay type in all cases: cell-based, Escherichia coli
E. coli [1] = test: Staining E. coli in spiked raw milk and saline at different temperatures, flow cytometry; settings: around 60° C. versus lower temperatures (40, 35, 25, 23° C.), 1 minute, pH 10.6
Procedure: Both solutions were spiked with E. coli bacteria by adding 200 μl bacterial culture to 45 ml solution. The staining composition was prepared with the same dilution of GelGreen™ (from Biotium) as described in Example 1, but this time into a Tris-saline solution (200 mM Trizma base, 150 mM NaCl, pH 10.6) further comprising 0.12 AU/ml liquid Alcalase® 2.4 L FG (from Novozymes). Incubations were as described in the previous examples, except that spiked raw milk samples were incubated at 60, 40 and 23° C. and spiked saline samples were incubated at 60, 35 and 25° C. for 1 minute. […] Each panel contains four quarters: Q1, Q2, Q3 and Q4. The counts provided in Q4 represent the number of cells given in each of these four quarters. […] The optimal range as disclosed herein is 40 to 70° C., a further preferred range is 60 to 68° C. and a highly preferred temperature point is 62° C.

E. coli [2] = test: Validation of flow cytometer bacterial counts versus Petrifilm CFU counts, E. coli cultures; settings: Tris-buffered saline pH 8.5, 50° C.
Procedure: First, an experiment was performed to confirm that bacterial counts obtained on the flow cytometer using GelGreen™ did correlate with traditional plate counts. For this, the Petrifilm method was selected (Standard Methods for Examination of Dairy Products 17th Edition 2004. Edited by H. M. Wehr and J. R. Frank. American Public Health Association, 800 I Street, NW, Washington D.C. 200001. Chapter 6.040), rather than a poured agar plate method, because of ease of use. Escherichia coil (E. coli) cultures were grown at 36° C. in Trypticase Soy Broth (TSB) in a culture tube. A staining composition was prepared as follows: The nucleic acid dye GelGreen™ (from Biotium) was diluted to 1× from the 10,000× commercially available stock, into Tris-buffered saline (100 mM Trizma base, 100 mM Trizma HCl, 150 mM NaCl, pH 8.5), which was preheated to 50° C. […] The stained E. coli was analyzed on the flow cytometer and the FL1 (Bandpass 531 nm (519-551)) and FL2 (Long pass >550 nm) fluorescence channels were used to identify the stained bacteria (FIGS. 1A and 1C). […] Each dilution of E. coli was stained with the GelGreen™ reagent, analyzed on the flow cytometer and counts for each dilution were obtained. […] The Petrifilms were placed in a 30° C. incubator, removed after 48 hrs and the colonies on each Petrifilm were counted using an automated colony counter. […]

E. coli [3] = test: Staining E. coli culture with different nucleic acid dyes, flow cytometer counts (FL1FL2 region)
Procedure: First, an experiment was performed to confirm that bacterial counts obtained on the flow cytometer using GelGreen™ did correlate with traditional plate counts. For this, the Petrifilm method was selected (Standard Methods for Examination of Dairy Products 17th Edition 2004. Edited by H. M. Wehr and J. R. Frank. American Public Health Association, 800 I Street, NW, Washington D.C. 200001. Chapter 6.040), rather than a poured agar plate method, because of ease of use. Escherichia coil (E. coli) cultures were grown at 36° C. in Trypticase Soy Broth (TSB) in a culture tube. A staining composition was prepared as follows: The nucleic acid dye GelGreen™ (from Biotium) was diluted to 1× from the 10,000× commercially available stock, into Tris-buffered saline (100 mM Trizma base, 100 mM Trizma HCl, 150 mM NaCl, pH 8.5), which was preheated to 50° C. The used dilution of 1:10,000 of the GelGreen™ is in accordance with the manufacturer's recommendation for using GelGreen™ for the purpose it was intended for, namely staining DNA in an agarose gel. This is the dilution of GelGreen™ used in all the examples herein. The E. coli culture was removed from the 36° C. incubator and a small volume was diluted 1:100 into the preheated staining composition and incubated for approximately 4.5 min at 50° C. The stained E. coli was analyzed on the flow cytometer and the FL1 (Bandpass 531 nm (519-551)) and FL2 (Long pass >550 nm) fluorescence channels were used to identify the stained bacteria (FIGS. 1A and 1C). A rectangular region was defined around the positively stained cells identified as live cells in the FL1 versus FL2 2-dimensional correlation plot (FIG. 1B). A count per mL of the E. coli was obtained from the flow cytometry analysis. The E. coli culture was then diluted in TSB to obtain 3 different concentrations (1:10, 1:100 and 1:1000, respectively). The E. coli cultures were kept at 4° C. to minimize further growth until analysis. Each dilution of E. coli was stained with the GelGreen™ reagent, analyzed on the flow cytometer and counts for each dilution were obtained. Each E. coli culture was also appropriately diluted in Butterfield's PBS and 1 mL of the appropriately diluted culture was plated on Petrifilms in duplicate. The Petrifilms were placed in a 30° C. incubator, removed after 48 hrs and the colonies on each Petrifilm were counted using an automated colony counter. An average CFU/mL for each E. coli dilution was obtained. The Log of the flow cytometer bacterial counts using GelGreen™ was plotted versus the Log CFU counts from the Petrifilm (FIG. 2).
To show where the bacteria in the FL1 and FL2 signal plots can be expected, bacteria were first counted in the staining composition without adding any milk. A culture of E. coli were grown at 36° C. in Trypticase Soy Broth (TSB) in a culture tube. The nucleic acid dye GelGreen™ was diluted into Tris-buffered saline, at approximately pH 8.5, which was preheated to 50° C. The E. coli culture was removed from the 36° C. incubator and a small volume was diluted 1:100 into the preheated staining composition and incubated for approximately 4.5 min at 50° C. The stained E. coli was analyzed on the flow cytometer and the FL1 and FL2 fluorescence channels were used to identify the stained bacteria (FIG. 3A).
A culture of E. coli was grown at 36° C. in Trypticase Soy Broth (TSB), stained with GelGreen™ and counted on the flow cytometer (FIG. 5) as described in example 2. The E. coli culture was then kept at 4° C. until stained with other nucleic acid dyes. The nucleic acid dyes TOTO®-1 and SYBR® Safe (both from Thermo Fisher Scientific) were selected as alternatives. […] Both dyes have similar spectral properties to GelGreen™ and were diluted in Tris-buffered saline using the same dilution factor as GelGreen™. […]

CN(C)c1ccc2cc3ccc(N(C)C)cc3[n+](CCCCCC(=O)NCCCOCCOCCOCCCNC(=O)CCCCC[n+]3c4cc(N(C)C)ccc4cc4ccc(N(C)C)cc43)c2c1.[I-].[I-] [GelGreen™]
bacterial cells counted (E. coli [1]): more bacterial cells could be counted
relationship of Log flow cytometer bacterial counts versus Log CFU counts from Petrifilm (E. coli [2]): clear linear relationship
staining of E. coli (E. coli [3]; NaCl solution (saline), 50° C.): minimal staining
staining of E. coli (E. coli [3]; NaCl solution (saline), room temperature (23° C.)): does not stain E. coli; also recorded: did not stain bacterial cells
staining of E. coli (E. coli [3]; Tris-buffered saline pH 8.5, 50° C., approximately 4.5 min): stains essentially all bacterial cells
staining of E. coli (E. coli [3]; Tris-buffered saline pH 8.5, room temperature (23° C.)): does not stain E. coli; also recorded: did not stain bacterial cells
